Experimental data: article PMC3375280 (PLoS ONE, 2012)
Residue numbers refer to the chain shown, from its start.

Legend:
[1] = target: T1, AT1 C76A/L112C/C289A mutant receptor (Rattus norvegicus, UniProt P25095, C289A/C76A/L112C); test: competition binding, C76A/L112C/C289A mutant; conditions: for Kd ratio relative to WT (in parentheses): C76A/L112C/C289A / WT; for Kd: C76A/L112C/C289A, COS1 membranes, read-out: Binding affinity (Kd)
T1 construct: expressed in transfected cells; host or cells: COS1
T1 sequence (P25095 1-359 C76A/L112C/C289A): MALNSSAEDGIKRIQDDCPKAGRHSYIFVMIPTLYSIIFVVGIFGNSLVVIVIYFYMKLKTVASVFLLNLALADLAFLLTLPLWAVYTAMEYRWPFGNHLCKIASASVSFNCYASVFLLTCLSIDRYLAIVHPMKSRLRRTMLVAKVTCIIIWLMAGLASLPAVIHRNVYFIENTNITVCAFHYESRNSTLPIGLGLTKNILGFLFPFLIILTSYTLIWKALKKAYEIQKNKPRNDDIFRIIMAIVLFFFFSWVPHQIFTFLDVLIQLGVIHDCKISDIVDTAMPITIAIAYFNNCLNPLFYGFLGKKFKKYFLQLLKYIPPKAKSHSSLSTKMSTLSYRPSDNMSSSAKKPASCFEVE
Procedure: (§1) The Kd and Bmax values of receptor binding were determined by ^125I-[Sar^1, Ile^8] […] Membranes expressing the WT or mutant AT1 receptors were incubated with 100 pM ^125I-[Sar^1, Ile^8] […] The binding reaction was terminated by filtering the incubation mixture through Whatman GF/C glass filters, and the residues were extensively washed further with binding buffer. The bound ligand fraction was determined from the counts per minute (cpm) remaining on the membrane. Binding kinetics values were determined as previously described.

[2] = target: T1, AT1 C76A/L112C/C289A mutant receptor; test: substituted cysteine accessibility mapping (SCAM), C76A/L112C/C289A; assay type: binding; parameters: key to Cysteine accessibility at Leu112 compared to ligand (-): Less and More indicate that the AT1 receptor is less or more accessible to the ligand pocket, respectively; Less and More indicate that the AT1 receptor is less or more accessible to the ligand pocket, respectively; No change; conditions: for % inhibition of 125I-[Sar1,Ile8]Ang II binding by MTSEA+ after ligand pre-incubation: C76A/L112C/C289A mutant, 1 µM ligand, comparison in words; for Cysteine accessibility at Leu112 compared to ligand (-): SCAM, 1 µM ARB, […] MTSEA+, COS1 membranes
Text: As we reported previously, the percentage (%) inhibition of ^125I-[Sar^1, Ile^8] AngII binding by methanethiosulphonate ethyl-ammonium (MTSEA^+) reagent was approximately 30% on AT1 receptor, since Cys^76 in TM2 was accessible to water within the ligand pocket. In addition, mechanical stretching increased the accessibility of Cys^289 by inducing a change in the conformation of TM7 [22]. To differentiate between single and multiple movements of one or more native cysteines, we created TM3 residues that were substituted with cysteine one at a time from […] to Phe^117 using the C76A/C289A mutant genetic background and evaluated each triple mutant for MTSEA sensitivity.
Figure 3 Changes in cysteine accessibility in COS1 cells expressing C76A/C289A mutant receptors in which the transmenbrane 3 residues from Ala^106 to Phe^117, except for position 113, were successively replaced by cysteine. 1 µM of ARBs, n=4–9, *p<0.05 vs. no treatment. #p<0.05 vs. C76A/C289A.
The SCAM method has been used to probe relative changes in the conformation of constitutively active AT1 receptor [20]–[22] and other GPCRs, [30] by validating the presence of Cys residues within the ligand pocket. We used a highly reactive, sulfhydryl-specific reaction with methanethiosulfonyl ethyl-ammonium (MTSEA^+), which reacts a billion times faster with water-exposed and ionized Cys than with lipid-exposed and un-ionized Cys. In this reaction, a positively charged sulfonylmethylammonium group is added to a water-exposed Cys. Aliquots of cell membranes are incubated with or without ARBs for 20 min in phosphate buffer at room temperature. The membranes are then diluted with same buffer and centrifuged. After washout the cell membranes, the membranes are incubated with 2.5 mM MTSEA^+ at room temperature for 2 min in HEPES buffer (pH7.4). The Membranes are then diluted with same buffer to stop the reaction and centrifuged. One hundred µl aliquots were used to assay for ^125I-[Sar^1,Ile^8]Ang II binding. The fractional inhibition is calculates 1 − [(specific binding after MTX reagent) / (specific binding without reagent)].

[3] = target: T2, AT1 C76A/Y113C/C289A mutant receptor (Rattus norvegicus, UniProt P25095, C289A/C76A/Y113C); test: competition binding, C76A/Y113C/C289A mutant; conditions: for Kd ratio relative to WT (in parentheses): C76A/Y113C/C289A / WT; for Kd: C76A/Y113C/C289A, COS1 membranes, read-out: Binding affinity (Kd)
T2 construct: expressed in transfected cells; host or cells: COS1 cells (membranes)
T2 sequence (P25095 1-359 C76A/Y113C/C289A): T1 sequence (P25095 1-359 C76A/L112C/C289A) with C112L, Y113C
Procedure: as §1

[4] = target: T3, AT1 L112A mutant receptor (Rattus norvegicus, UniProt P25095, L112A); test: competition binding, L112A mutant; conditions: for Kd ratio relative to WT (in parentheses): L112A / WT; for Kd: L112A, COS1 membranes, read-out: Binding affinity (Kd)
T3 construct: expressed in transfected cells; host or cells: COS1
T3 sequence (P25095 1-359 L112A): T1 sequence (P25095 1-359 C76A/L112C/C289A) with A76C, C112A, A289C
Procedure: as §1

SMILES | Kd ratio relative to WT (in parentheses) [1] | Kd [1] | % inhibition of 125I-[Sar1,Ile8]Ang II binding by MTSEA+ after ligand pre-incubation [2] | Kd ratio relative to WT (in parentheses) [3] | Kd [3] | Kd ratio relative to WT (in parentheses) [4] | Kd [4] | Cysteine accessibility at Leu112 compared to ligand (-) [2] | Cysteine accessibility at Leu112 compared to ligand (-) ([2]; listed as olmesartan) | Kd ratio relative to WT (in parentheses) ([4]; listed as olmesartan)
CCCc1nc(C(C)(C)O)c(C(N)=O)n1Cc1ccc(-c2cc(Cc3ccc(O)cc3)ccc2-c2nnn[nH]2)cc1 [R794847] | 1.3 fold | 62 ± 9 nM | significantly lower than those with olmesartan and R239470 | 134 fold | 6420 ± 2570 nM | 0.6 fold | 31 ± 5 nM | – | – | –
CCCc1nc(C(C)(C)O)c(C(N)=O)n1Cc1ccc(-c2ccccc2-c2nnn[nH]2)cc1 [R239470] | 4.0 fold | 3.2 ± 1.3 nM | significantly lower than that with ligand (-) | 340 fold | 272 ± 129 nM | 54 fold | 43 ± 12 nM | – | – | –
CCCc1nc(C(C)(C)O)c(C(=O)O)n1Cc1ccc(-c2ccccc2-c2nnn[nH]2)cc1 [Olmesartan, olmesartan, reference compound] | 2.7 fold | 6.1 ± 2.1 nM | significantly lower than that with ligand (-) | 248 fold | 570 ± 197 nM | 12 fold | 27 ± 7 nM | Less | less accessibility | > 10 fold
